Assay results as given in the supplement of paper PMC4862054.
Several values for one entry are separate records, joined by “and”; a condition that tells them apart may be missing. Equal values may be shown once.

How the values were obtained:
Details in all cases: incubation time: 72 h
CAL-51 = experiment: normalised viability (% of control), CellTiter-Blue; higher = more viable cells (about 100 = DMSO control)
Procedure: (§1)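 DSRT, CellTiter-Blue viability, 72 h incubation. Signal is normalised to DMSO and benzethonium chloride controls. Value is the normalised response at dose 7.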

MDA-MB-453 = experiment: as above
Procedure: as §1

CAL-148 = experiment: as above
Procedure: as §1

DU-4475 = experiment: as above
Procedure: as §1

HDQ-P1 = experiment: as above
Procedure: as §1

CAL-85-1 = experiment: as above
Procedure: as §1

BT-474 = experiment: normalised response (% of control), CellTiter-Glo; higher = more viable cells (100 = DMSO, 0 = benzethonium chloride kill control)
Summary of the method: (§2)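 Normalised signals at single concentrations make up the values. They come from breast cancer cell lines seeded (20 µl suspension) into 384-well plates with compound at 5 concentrations in 10-fold steps over a compound-specific 10,000-fold range, incubated 72 h, and read for CellTox Green fluorescence then CellTiter-Glo luminescence. Each plate was normalised to 0.1 % DMSO (100) and a positive kill control (0).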

CAL-120 = experiment: as above
Summary of the method: as §2

BT-549 = experiment: as above
Summary of the method: as §2

## Cn1cc(C2=Nc3cc(NC(=O)C(N)C4CCCCC4)cc4c3C2=CNNC4=O)cn1 (stereo unspecified) (1000 nM)
CAL-51
  normalised viability: 87.8%
MDA-MB-453
  normalised viability: 36.9%
CAL-148
  normalised viability: 62.4%
DU-4475
  normalised viability: 72.1%
HDQ-P1
  normalised viability: 67.1%
CAL-85-1
  normalised viability: 64%
BT-474
  normalised response: 68.5%
CAL-120
  normalised response: 69.7%
BT-549
  normalised response: 25.7%

## COc1cc2c(cc1O)CC[C@@H]1[C@@H]2CC[C@]2(C)[C@@H](O)CC[C@@H]12 [2-methoxyestradiol] (1000 nM)
CAL-51
  normalised viability: 107%
MDA-MB-453
  normalised viability: 53.3%
CAL-148
  normalised viability: 89.7%
DU-4475
  normalised viability: 89.5%
HDQ-P1
  normalised viability: 83%
CAL-85-1
  normalised viability: 86.8%
BT-474
  normalised response: 68.9%
CAL-120
  normalised response: 81.8%
BT-549
  normalised response: 49.5%

## Cc1sc2c(c1C)C(c1ccc(Cl)cc1)=N[C@@H](CC(=O)OC(C)(C)C)c1nnc(C)n1-2 [(+)JQ1] (1000 nM)
CAL-51
  normalised viability: 84.1%
MDA-MB-453
  normalised viability: 21.9%
CAL-148
  normalised viability: 56.5%
DU-4475
  normalised viability: 12.4%
HDQ-P1
  normalised viability: 106%
CAL-85-1
  normalised viability: 56.7%
BT-474
  normalised response: 69.9%
CAL-120
  normalised response: 73.4%
BT-549
  normalised response: 43.5%

## Oc1ncnc2[nH]ncc12 [Allopurinol] (1000 nM)
CAL-51
  normalised viability: 91.5%
MDA-MB-453
  normalised viability: 100%
CAL-148
  normalised viability: 124%
DU-4475
  normalised viability: 109%
HDQ-P1
  normalised viability: 88%
CAL-85-1
  normalised viability: 96.3%
BT-474
  normalised response: 101%
CAL-120
  normalised response: 98.8%
BT-549
  normalised response: 99.7%

## O=C1CN2Cc3c(ccc(Cl)c3Cl)N=C2N1 [Anagrelide] (1000 nM)
CAL-51
  normalised viability: 73.6%
MDA-MB-453
  normalised viability: 103%
CAL-148
  normalised viability: 104%
DU-4475
  normalised viability: 113%
HDQ-P1
  normalised viability: 105%
CAL-85-1
  normalised viability: 86.1%
BT-474
  normalised response: 90.7%
CAL-120
  normalised response: 93.6%
BT-549
  normalised response: 95.1%

## Nc1ncn([C@@H]2O[C@H](CO)[C@@H](O)[C@H]2O)c(=O)n1 [Azacitidine] (1000 nM)
CAL-51
  normalised viability: 96.7%
MDA-MB-453
  normalised viability: 98.9%
CAL-148
  normalised viability: 97.3%
DU-4475
  normalised viability: 116%
HDQ-P1
  normalised viability: 106%
CAL-85-1
  normalised viability: 91.4%
BT-474
  normalised response: 96.7%
CAL-120
  normalised response: 91.1%
BT-549
  normalised response: 80.5%

## O=NN(CCCl)C(=O)NCCCl [Carmustine] (1000 nM)
CAL-51
  normalised viability: 96.9%
MDA-MB-453
  normalised viability: 105%
CAL-148
  normalised viability: 105%
DU-4475
  normalised viability: 102%
HDQ-P1
  normalised viability: 105%
CAL-85-1
  normalised viability: 88.4%
BT-474
  normalised response: 95.5%
CAL-120
  normalised response: 96.6%
BT-549
  normalised response: 101%

## CC1=C2C[C@H]3[C@@H](CC=C4C[C@@H](O)CC[C@@]43C)[C@@H]2CC[C@]12O[C@@H]1C[C@H](C)CN[C@H]1[C@H]2C [Cyclopamine] (1000 nM)
CAL-51
  normalised viability: 110%
MDA-MB-453
  normalised viability: 86.8%
CAL-148
  normalised viability: 119%
DU-4475
  normalised viability: 121%
HDQ-P1
  normalised viability: 127%
CAL-85-1
  normalised viability: 92.2%
BT-474
  normalised response: 95.7%
CAL-120
  normalised response: 106%
BT-549
  normalised response: 92.4%

## CC(=O)O[C@@]12CO[C@@H]1C[C@H](O)[C@@]1(C)C(=O)[C@H](O)C3=C(C)[C@@H](OC(=O)[C@H](O)[C@@H](NC(=O)OC(C)(C)C)c4ccccc4)C[C@@](O)([C@@H](OC(=O)c4ccccc4)[C@H]21)C3(C)C [Docetaxel] (100 nM)
CAL-51
  normalised viability: 18.2% and 13.8%
MDA-MB-453
  normalised viability: 26.2% and 23.4%
CAL-148
  normalised viability: 22.7% and 19.8%
DU-4475
  normalised viability: 13.8% and 9.08%
HDQ-P1
  normalised viability: 34.2% and 38%
CAL-85-1
  normalised viability: 32.9% and 29.5%
BT-474
  normalised response: 38.3%
CAL-120
  normalised response: 56.3%
BT-549
  normalised response: 16%

## CC1(C)CNc2cc(NC(=O)c3cccnc3NCc3ccncc3)ccc21 [Motesanib] (1000 nM)
CAL-51
  normalised viability: 105%
MDA-MB-453
  normalised viability: 75.4%
CAL-148
  normalised viability: 90.3%
DU-4475
  normalised viability: 99.5%
HDQ-P1
  normalised viability: 78.1%
CAL-85-1
  normalised viability: 79.8%
BT-474
  normalised response: 91.9%
CAL-120
  normalised response: 92.3%
BT-549
  normalised response: 97.6%

## CC[C@@H]1C(=O)OC[C@@H]1Cc1cncn1C [Pilocarpine] (4000 nM)
CAL-51
  normalised viability: 108%
MDA-MB-453
  normalised viability: 101%
CAL-148
  normalised viability: 101%
DU-4475
  normalised viability: 95.5%
HDQ-P1
  normalised viability: 121%
CAL-85-1
  normalised viability: 89.5%
BT-474
  normalised response: 92.2%
CAL-120
  normalised response: 95.7%
BT-549
  normalised response: 97.6%

## CC(C)(C)c1cnc(CSc2cnc(NC(=O)C3CCNCC3)s2)o1 [SNS-032] (1000 nM)
CAL-51
  normalised viability: 31.5%
MDA-MB-453
  normalised viability: 11.2%
CAL-148
  normalised viability: 18.8%
DU-4475
  normalised viability: 2.63%
HDQ-P1
  normalised viability: 12.6%
CAL-85-1
  normalised viability: 2.84%
BT-474
  normalised response: 20.2%
CAL-120
  normalised response: 36.9%
BT-549
  normalised response: 8.17%

## Cn1cnc2c(F)c(Nc3ccc(Br)cc3Cl)c(C(=O)NOCCO)cc21 [Selumetinib] (1000 nM)
CAL-51
  normalised viability: 91.3%
MDA-MB-453
  normalised viability: 104%
CAL-148
  normalised viability: 92.8%
DU-4475
  normalised viability: 1.82%
HDQ-P1
  normalised viability: 75.2%
CAL-85-1
  normalised viability: 64.8%
BT-474
  normalised response: 67.8%
CAL-120
  normalised response: 85.1%
BT-549
  normalised response: 96.5%

## Nc1nc2[nH]cnc2c(=S)[nH]1 [Thioguanine] (1000 nM)
CAL-51
  normalised viability: 108%
MDA-MB-453
  normalised viability: 95.2%
CAL-148
  normalised viability: 93.4%
DU-4475
  normalised viability: 117%
HDQ-P1
  normalised viability: 85.2%
CAL-85-1
  normalised viability: 79.2%
BT-474
  normalised response: 44.8%
CAL-120
  normalised response: 79%
BT-549
  normalised response: 94.2%
